Measured values reported in ChEMBL document CHEMBL3638391, “Flap modulators” (2015).

Target: T1, Arachidonate 5-lipoxygenase-activating protein (Homo sapiens, UniProt P20292)
T1 sequence (P20292 whole entry): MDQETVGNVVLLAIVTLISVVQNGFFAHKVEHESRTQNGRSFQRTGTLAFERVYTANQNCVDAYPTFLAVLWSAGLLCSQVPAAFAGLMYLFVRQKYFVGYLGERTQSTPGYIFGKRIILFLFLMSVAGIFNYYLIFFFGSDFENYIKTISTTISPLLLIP
Test: Homogeneous Time Resolved Fluorescence Assay: The assay below is used to test the modulatory activity of compounds against FLAP. Human and mouse FLAP-encoding DNA was amplified by polymerase chain reaction and cloned into pFastBacl (Invitrogen) with a NH2-terminal 6-His tag for expression in Spodoptera frugiperda (Sf-9) cells. FLAP-containing membranes were prepared as was a FITC-labeled FLAP …
Description: Homogeneous Time Resolved Fluorescence Assay: The assay below is used to test the modulatory activity of compounds against FLAP. Human and mouse FLAP-encoding DNA was amplified by polymerase chain reaction and cloned into pFastBacl (Invitrogen) with a NH2-terminal 6-His tag for expression in Spodoptera frugiperda (Sf-9) cells. FLAP-containing membranes were prepared as was a FITC-labeled FLAP modulator [5-[({[2-(2-{3-[3-(tert-Butylsulfanyl)-1-(4-chlorobenzyl)-5-(quinolin-2-ylmethoxy)-1H-indol-2-yl]-2,2-dimethylpropanoyl}hydrazino)-2-oxoethyl]sulfanyl}acetyl)amino]-2-(6-hydroxy-3-oxo-3H-xanthen-9-yl)benzoic acid]. The FLAP binding assay is performed in HTRF format (homogeneous time resolved fluorescence).

Ki: 3.2 nM
SMILES: C[C@@H]([C@@H](O)c1ccccc1)N(C)S(=O)(=O)c1ccccc1-c1ccc(-c2ccc(N)nc2)c(F)c1
